≈ marks a conversion by molar mass, not a printed value.
Tests used:
[1] = system: Staphylococcus aureus X400; assay: In vitro antibacterial activity, agar-dilution MIC; format: cell-based; conditions: Staphylococcus aureus X400, methicillin-resistant strain
Method: (§1) The formula 1 compounds have in vitro and in vivo activity against Gram-positive pathogenic bacteria. The MIC's were determined by standard agar-dilution assays.

[2] = system: Staphylococcus aureus X1.1; assay: In vitro antibacterial activity, agar-dilution MIC; format: cell-based
Method: as §1

[3] = system: Klebsiella pneumoniae X26; assay: In vitro antibacterial activity, agar-dilution MIC; format: cell-based; conditions: highest level tested 128 mcg/mL
Method: as §1

[4] = system: Staphylococcus aureus V41; assay: In vitro antibacterial activity, agar-dilution MIC; format: cell-based; conditions: Staphylococcus aureus V41, penicillin-resistant strain
Method: as §1

[5] = system: Streptococcus Group D 2041; assay: In vitro antibacterial activity, agar-dilution MIC; format: cell-based
Method: as §1

[6] = system: Haemophilus influenzae C.L.; assay: In vitro antibacterial activity, agar-dilution MIC; format: cell-based; conditions: ampicillin-sensitive strain, highest level tested 128 mcg/mL
Method: as §1

[7] = system: Escherichia coli EC14; assay: In vitro antibacterial activity, agar-dilution MIC; format: cell-based; conditions: highest level tested 128 mcg/mL
Method: as §1

[8] = system: Haemophilus influenzae 76; assay: In vitro antibacterial activity, agar-dilution MIC; format: cell-based; conditions: Haemophilus influenzae 76, ampicillin-resistant strain, highest level tested 128 mcg/mL
Method: as §1

[9] = system: Staphylococcus epidermidis 222; assay: In vitro antibacterial activity, agar-dilution MIC; format: cell-based
Method: as §1

[10] = system: Streptococcus Group D X66; assay: In vitro antibacterial activity, agar-dilution MIC; format: cell-based
Method: as §1

[11] = system: Streptococcus pyogenes C203; assay: In vitro antibacterial activity, agar-dilution MIC; format: cell-based
Method: as §1

[12] = system: Staphylococcus epidermidis 270; assay: In vitro antibacterial activity, agar-dilution MIC; format: cell-based
[13] = system: Staphylococcus aureus S13E; format: cell-based; conditions: agar dilution
Method: as §1

[14] = system: Streptococcus pneumoniae Park I; format: cell-based; conditions: agar dilution
Method: as §1

[15] = system: Staphylococcus aureus; assay: In vivo activity against experimentally-induced infection in mice (ED50); conditions: mice infected with Staphylococcus aureus; subcutaneous doses 1 and 4 hours postinfection
Method: (§2) The formula 1 compounds have also shown in vivo antimicrobial activity against experimentally-induced infections in laboratory animals. When two doses of test compound were administered to mice experimentally infected with the test organism, the activity observed was measured as an ED50 value [effective dose in mg/kg to protect 50% of the test animals: see Warren Wick, et al., J. Bacteriol. 81, 233-235 (1961)]. ED50 values observed for illustrative compounds are given in Table III. | ^a mg/kg × 2; doses administered subcutaneously to mice 1 and 4 | hours postinfection

[16] = system: Streptococcus pyogenes; assay: as above; conditions: mice infected with Streptococcus pyogenes; subcutaneous doses 1 and 4 hours postinfection
Method: as §2

[17] = system: Streptococcus pneumoniae; assay: as above; conditions: mice infected with Streptococcus pneumoniae; subcutaneous doses 1 and 4 hours postinfection
Method: as §2

Compound | MIC [1] [µg/mL] | MIC [2] [µg/mL] | MIC [3] | MIC [4] [µg/mL] | MIC [5] [µg/mL] | MIC [6] | MIC [7] | MIC [8] | MIC [9] [µg/mL] | MIC [10] [µg/mL] | MIC [11] [µg/mL] | MIC [12] [µg/mL] | MIC [13] [µg/mL] | MIC [14] [µg/mL] | ED50 Value [15] [mg/kg × 2] | ED50 Value [16] [mg/kg × 2] | ED50 Value [17] [mg/kg × 2]
CNC(CC(C)C)C(=O)NC1C(=O)NC(CC(N)=O)C(=O)NC2C(=O)NC3C(=O)NC(C(=O)NC(C(=O)O)c4cc(O)cc(O)c4-c4cc3ccc4O)C(OC3CC(C)(N)C(O)C(C)O3)c3ccc(cc3)Oc3cc2cc(c3OC2OC(CO)C(O)C(O)C2O)Oc2ccc(cc2Cl)C1O (stereo not shown) [Compound 2a] | 1 (≈ 0.707 µM) | 0.5 (≈ 0.353 µM) | -- (Not active at 128 mcg/mL, the highest level tested) | 1 (≈ 0.707 µM) | 4 (≈ 2.83 µM) | -- (Not active at 128 mcg/mL, the highest level tested) | -- (Not active at 128 mcg/mL, the highest level tested) | -- (Not active at 128 mcg/mL, the highest level tested) | 1 (≈ 0.707 µM) | 1 (≈ 0.707 µM) | 0.5 (≈ 0.353 µM) | 1 (≈ 0.707 µM) | 0.5 (≈ 0.353 µM) | 1 (≈ 0.707 µM) | 2.97 | 3.54 | 2.04
CN[C@H](CC(C)C)C(=O)N[C@H]1C(=O)N[C@@H](CC(N)=O)C(=O)N[C@H]2C(=O)N[C@H]3C(=O)N[C@H](C(=O)N[C@H](C(=O)O)c4cc(O)cc(O)c4-c4cc3ccc4O)[C@H](O[C@H]3C[C@](C)(N)[C@@H](O)[C@H](C)O3)c3ccc(cc3)Oc3cc2cc(c3O)Oc2ccc(cc2Cl)[C@H]1O [Compound 2b] | 1 (≈ 0.798 µM) | 1 (≈ 0.798 µM) | -- (Not active at 128 mcg/mL, the highest level tested) | 1 (≈ 0.798 µM) | 4 (≈ 3.19 µM) | -- (Not active at 128 mcg/mL, the highest level tested) | -- (Not active at 128 mcg/mL, the highest level tested) | -- (Not active at 128 mcg/mL, the highest level tested) | 2 (≈ 1.6 µM) | 1 (≈ 0.798 µM) | 1 (≈ 0.798 µM) | 2 (≈ 1.6 µM) | 1 (≈ 0.798 µM) | 1 (≈ 0.798 µM) | 3.06 | 3.54 | 3.74
CN[C@H](CC(C)C)C(=O)N[C@H]1C(=O)N[C@@H](CC(N)=O)C(=O)N[C@H]2C(=O)N[C@H]3C(=O)N[C@H](C(=O)N[C@H](C(=O)O)c4cc(O)cc(O)c4-c4cc3ccc4O)[C@H](O)c3ccc(cc3)Oc3cc2cc(c3O)Oc2ccc(cc2Cl)[C@H]1O [Compound 2c] | 8 (≈ 7.21 µM) | 4 (≈ 3.61 µM) | -- (Not active at 128 mcg/mL, the highest level tested) | 4 (≈ 3.61 µM) | 16 (≈ 14.4 µM) | -- (Not active at 128 mcg/mL, the highest level tested) | -- (Not active at 128 mcg/mL, the highest level tested) | -- (Not active at 128 mcg/mL, the highest level tested) | 8 (≈ 7.21 µM) | 8 (≈ 7.21 µM) | 4 (≈ 3.61 µM) | 4 (≈ 3.61 µM) | 4 (≈ 3.61 µM) | 4 (≈ 3.61 µM) |  |  | 
CN[C@H](CC(C)C)C(=O)N[C@H]1C(=O)N[C@@H](CC(N)=O)C(=O)N[C@H]2C(=O)N[C@H]3C(=O)N[C@H](C(=O)N[C@H](C(=O)O)c4cc(O)cc(O)c4-c4cc3ccc4O)[C@H](O[C@H]3C[C@](C)(N)[C@@H](O)[C@H](C)O3)c3ccc(c(Cl)c3)Oc3cc2cc(c3O[C@@H]2O[C@H](CO)[C@@H](O)[C@H](O)[C@H]2O)Oc2ccc(cc2Cl)[C@H]1O [Compound 3a] | 0.5 (≈ 0.345 µM) | 0.25 (≈ 0.173 µM) | -- (Not active at 128 mcg/mL, the highest level tested) | 0.25 (≈ 0.173 µM) | 1 (≈ 0.69 µM) | 64 µg/mL (≈ 44.2 µM) | -- (Not active at 128 mcg/mL, the highest level tested) | -- (Not active at 128 mcg/mL, the highest level tested) | 0.5 (≈ 0.345 µM) | 0.5 (≈ 0.345 µM) | 0.25 (≈ 0.173 µM) | 1 (≈ 0.69 µM) | 0.25 (≈ 0.173 µM) | 0.25 (≈ 0.173 µM) | 0.54 | 0.70 | 0.34
CN[C@H](CC(C)C)C(=O)N[C@H]1C(=O)N[C@@H](CC(N)=O)C(=O)N[C@H]2C(=O)N[C@H]3C(=O)N[C@H](C(=O)N[C@H](C(=O)O)c4cc(O)cc(O)c4-c4cc3ccc4O)[C@H](O[C@H]3C[C@](C)(N)[C@@H](O)[C@H](C)O3)c3ccc(c(Cl)c3)Oc3cc2cc(c3O)Oc2ccc(cc2Cl)[C@H]1O [Compound 3b] | 0.5 (≈ 0.388 µM) | 0.125 (≈ 0.0971 µM) | -- (Not active at 128 mcg/mL, the highest level tested) | 0.25 (≈ 0.194 µM) | 1 (≈ 0.777 µM) | 32 µg/mL (≈ 24.9 µM) | -- (Not active at 128 mcg/mL, the highest level tested) | 64 µg/mL (≈ 49.7 µM) | 0.25 (≈ 0.194 µM) | 0.5 (≈ 0.388 µM) | 0.25 (≈ 0.194 µM) | 0.5 (≈ 0.388 µM) | 0.125 (≈ 0.0971 µM) | 0.25 (≈ 0.194 µM) | 0.50 | 0.40 | 0.30
